Data as given in patent publication US12458647B2, “Macrocyclic derivative and use thereof” (Guangzhou Joyo Pharmatech Co., Ltd., priority 2022, dated 2025).

Experiments:
A549 cells = assay: In vitro cell proliferation experiment (5 days), A549; assay type: cell-based; details: A549, 5 days; read-out: Inhibitory Activity IC50
Protocol: (§1) RPMI 1640 medium, DMEM, Ham's F12 medium, F12K medium, IMDM and penicillin/streptomycin antibiotics were purchased from Gibco, fetal bovine serum was purchased from Hyclone, Envision multilabel plate reader (PerkinElmer). […]
(§2) The test compound was diluted by 5-fold to 8 concentrations with a pipette, i.e., from 2 mM to 25.6 nM, and replicate wells were set up for the experiment. […] Another cell plate was prepared, and the signal value was read as the maximum value (the maximum value in the following equation) on the day of dosing for data analysis.
(§3) 50 μL of cell viability chemiluminescent detection reagent was added to the cell plate and incubated at room temperature for 30 minutes to stabilize the luminescence signal. A multilabel plate reader was used for reading. […]

[1] = In vitro determination of whole blood to plasma concentration ratios, human; assay type: in vitro ADME; details: 1 μM, 37° C., 60 minutes
Protocol: (1) Fresh mouse and human whole blood (n≥3 for number of individual animals and n≥2 for number of individual humans) were collected in blood collection tubes containing EDTAK2 anticoagulant. Whole blood samples had to be mixed well and stored at 2-8° C. or on wet ice before use. They were used within 36 hours of whole blood collection. Blank whole blood was centrifuged at 2,000×g for 15 minutes at room temperature to obtain blank plasma. The plasma status was checked and hemolyzed plasma samples could not be used.
(2) The hematocrit (the percentage content of red blood cells in whole blood) was determined by centrifugation of whole blood samples in microhematocrit centrifuge tubes.
(3) Diclofenac (all species), chlorthalidone (mouse) or chloroquine (human) were used as control compounds.
(4) ACN solution containing 2% DMSO with a final concentration of 1 μM of the test compound was added to blank whole blood samples, and three parallel treatments were performed. The final content of the organic phase in the system should not exceed 0.5% (the content of DMSO should not exceed 0.1%). A certain volume of the drug-containing whole blood sample was pipetted to the sample receiving plate (three replicates), an equal volume of blank plasma was added, and mixed well to obtain the T0 sample.
(5) The whole blood sample containing the test compound was incubated at 37° C. with shaking for 60 minutes.
(6) After the end of incubation, a certain volume of whole blood samples containing the drug was pipetted to the sample receiving plate (three replicates) as T60-whole blood samples.
(7) The remaining whole blood samples were centrifuged at 2,000×g for 15 minutes in a 37° C. centrifuge to obtain plasma samples. A certain volume of plasma was pipetted to the sample receiving plate (three replicates) as T60-plasma samples.
(8) During sample treatment, all samples were equilibrated with the matrix (i.e., blank whole blood or blank plasma of the same volume was added) and mixed well.
(9) 1-fold volume of pure water was added to the equilibrated sample, and then a certain volume of stop solution containing internal standard compound was added to terminate the reaction.
(10) The analytes and control compounds in the samples were determined by liquid chromatography-tandem mass spectrometry (LC-MS/MS) method. The ratio of analyte peak area to internal standard peak area was used to represent the concentration in the sample.
See Table 7 for the experimental results. Wherein KB/P represents the concentration ratio of the compound in whole blood and plasma. KE/P represents the concentration ratio of the compound in red blood cells and plasma, and recovery (%) represents the recovery of the compound in whole blood.

LU99 cell line = assay: In vitro cell proliferation experiment (5 days), LU99; assay type: cell-based; details: LU99, 5 days; read-out: Inhibitory Activity IC50
Protocol: as §1, §2, §3

PSN-1 cell line = assay: In vitro cell proliferation experiment (5 days), PSN-1; assay type: cell-based; details: PSN-1, 5 days; read-out: Inhibitory Activity IC50
Protocol: as §1, §2, §3

RKN cell line = assay: In vitro cell proliferation experiment (5 days), RKN; assay type: cell-based; details: read-out: Inhibitory Activity IC50
Protocol: as §1, §2, §3

AsPC-1 cells = assay: In vitro cell proliferation experiment (5 days), AsPC-1; assay type: cell-based; details: AsPC-1, 5 days; read-out: Inhibitory Activity IC50
Protocol: as §1, §2, §3

LOVO cells = assay: In vitro cell proliferation experiment (5 days), LOVO; assay type: cell-based; details: read-out: Inhibitory Activity IC50
Protocol: as §1, §2, §3

| Compound | IC50 (A549 cells) [nM] | KB/P (concentration ratio of the compound in whole blood and plasma) [1] | KE/P (concentration ratio of the compound in red blood cells and plasma) [1] | Recovery (%) of the compound in whole blood [1] [%] | IC50 (LU99 cell line) [nM] | IC50 (PSN-1 cell line) [nM] | IC50 (RKN cell line) [nM] | IC50 (AsPC-1 cells) [nM] | IC50 (LOVO cells) [nM] |
| --- | --- | --- | --- | --- | --- | --- | --- | --- | --- |
| CCn1c(-c2cc(N3CCN(C)CC3)cnc2C(C)OC)c2c3cc(ccc31)-c1csc(n1)CC(NC(=O)C1C(C)C1C)C(=O)N1NC(C(=O)OCC(C)(C)C2)C2CC1C2 (single isomer, unassigned) [Compound 6A] | 4.1 | 3.5 | 6.5 | 96.4 | 8.7 | 5.3 | 4.5 | 2.1 | 2.8 |
| CCn1c(-c2cc(N3CCN(C)CC3)cnc2C(C)OC)c2c3cc(ccc31)-c1csc(n1)CC(NC(=O)C1CC1C)C(=O)N1NC(C(=O)OCC(C)(C)C2)C2CC1C2 (single isomer, unassigned) [Compound 7A] | – | 2.6 | 5.2 | 102.6 | – | 10.5 | 7.5 | 6.6 | 5.9 |
